Test results published in US11795195B2, “Antibody-drug conjugates including hemiasterlin derivative” (Sumitomo Pharma Co., Ltd., priority 2017, dated 2023).

Legend:
[1] = Membrane Permeability Test, parallel artificial membrane permeability assay (PAMPA); assay type: in vitro ADME; details: pH 7.4, pH7.4, 37° C., read-out: Pe (pH7.4)
Description: By the parallel artificial membrane permeability assay (PAMPA), the membrane permeability of compounds of Examples was examined as follows: To the donor plate, System solution (pION inc.) and GIT Lipid-0 (pION inc.) were added in an amount of 200 μL and 4 μL for each well, respectively. To the acceptor plate, Acceptor Sink Buffer (pION inc.) was added in an amount of 200 μL. Both plates were superposed and incubated at 37° C. for 4 hours, and then, UVs in the solutions on the side of acceptor and on the side of donor were measured with an UV plate reader (190 to 500 nm). Compounds with poor UV absorption were measured by LC-MS. The permeability coefficient Pe (10^−6 cm/sec) of the drug was calculated by the following formula.
[formula] • ra=(VD/VA)Pa^(A-D)/Pa^(D-A)=rVPe^(A-D)/Pa^(D-A) • rV=(VD/VA) • VD=volume of doner well • VA=volume of acceptor well • t=permeation time • τ^SS=steady state time • R=retention • CD=CA=concentration in donor and acceptor well

SK-BR-3 cells = test: Cellular Toxicity Test (2), CellTiter-Glo cell viability; assay type: cell-based, human; details: for IC50: Homo sapiens, 72 h, cultured 3 days, cell viability
Description: SK-BR-3 cells (ATCC), which are human breast cancer cell line, were cultured in McCoy's 5A (GIBCO) containing 10% fetal bovine serum (MP Biomedicals) (hereinafter, referred to as the “culture medium” in this test). SK-BR-3 cells were prepared to be 2×10^6 cells/mL in the culture medium, added to a 96 well microplate for cell culturing in an amount of 50 μL for each well, and cultured at 37 degree under 5% CO2 overnight, and then, compounds of Examples or Comparative Example compound 4 times diluted with the culture medium in 8 stages were added to the microplate in an amount of 50 μL for each well. These were cultured at 37 degree under 5% CO2 for 3 days. After culturing, the microplate was taken out from the incubator, and was left at rest at room temperature for 10 minutes. 50 μL of CellTiter-Glo Luminescent Cell Viability Assay (Promega) was added to each well, and the resultant mixture was stirred. This mixture was incubated at a dark place for 20 minutes. Using a microplate luminometer, luminescence at each well was measured, thereby calculating the cell viability. The IC50 value was calculated in accordance with the method described in Test Example 1.

Karpas-299 cells [2] = test: Cellular Toxicity Test (1), CellTiter-Glo cell viability; assay type: cell-based, human; details: for IC50: Homo sapiens, 96 h, cultured 4 days, cell viability
Description: Karpas-299 cells (European Collection of Authenticated Cell Cultures, hereinafter, ECACC), which are human lymphoma cell lines, were cultured in RPMI 1640 (GIBCO) containing 10% fetal bovine serum (MP Biomedicals) (hereinafter, referred to as the “culture medium”). Cells were prepared to be 2×10^6 cells/mL in the culture medium, and were added to a 96 well microplate for cell culturing in an amount of 50 μL for each well. Compounds of Examples or Comparative Example compound 4 times diluted with the culture medium in 8 stages were added to the microplate in an amount of 50 μL for each well. These were cultured at 37 degree under 5% CO2 for 4 days. After culturing, the microplate was taken out from the incubator, and was left at rest at room temperature for 10 minutes. To each well, 50 μL of CellTiter-Glo Luminescent Cell Viability Assay (Promega) was added, and the resultant mixture was stirred. This mixture was incubated at a dark place for 20 minutes. Using a microplate luminometer, luminescence at each well was measured, thereby calculating the cell viability. In addition, from the value of cell viability, the IC50 value was calculated.
The IC50 value was calculated by the following formula: IC50 (nM)=antilog(LOG10(a/b)×(e−d)/(c−d)+LOG10b) a: concentration a of test substance b: concentration b of test substance c: cell viability upon adding test substance with concentration a d: cell viability upon adding test substance with concentration b e: intermediate value between maximum and minimum among cell viabilities upon adding test substances with different concentrations (a and b are concentrations crossing the cell viability e, and a>b is indicated).
The cell viability at each concentration was calculated by the following formula: Cell Viability (%)=a′/b′×100 a′: mean value of luminescence amount of wells to which test substance was added (n=6) b′: mean value of luminescence amount of wells to which test substance was not added (n=6) (n represents the number of evaluations performed per test substance concentration).

Karpas-299 cells [3] = test: Cellular Toxicity Test (1) for ADCs; assay type: cell-based, human; details: Karpas-299 (CD30 antigen-positive, HER2 antigen-negative cell line), 4 days
Description: Karpas-299 cells (ECACC), which are CD30 antigen-positive and HER2 antigen-negative, were cultured in RPMI 1640 (GIBCO) containing 10% fetal bovine serum (MP Biomedicals) (hereinafter, referred to as “culture medium A” in this test). In addition, SK-BR-3 cells (ATCC), which are CD30 antigen-negative and HER2 antigen-positive, were cultured in McCoy's 5A (GIBCO) containing 10% fetal bovine serum (MP Biomedicals) (hereinafter, referred to as “culture medium B” in this test). Karpas-299 cells and SK-BR-3 cells were prepared to be 2×10^6 cells/mL in culture medium A or culture medium B, and were added to a 96 well microplate for cell culturing in an amount of 50 μL for each well. After the addition, SK-BR-3 cells were cultured at 37 degree under 5% CO2 overnight. ADCs 4 times diluted with culture medium A or culture medium B in 8 stages were added to the microplate in an amount of 50 μL for each well, and Karpas-299 cells and SK-BR-3 cells were cultured at 37 degree under 5% CO2 for 4 days or 3 days, respectively. After culturing, the microplate was taken out from the incubator, and was left at rest at room temperature for 10 minutes. […] Using a microplate luminometer, luminescence was measured, thereby calculating the cell viability for each concentration of the ADC. The IC50 value was calculated in accordance with the method described in Test Example 1.

Karpas-299 cells [4] = test: Cellular Toxicity Test (2) for ADCs, cell survival relative to brentuximab; assay type: cell-based, human; details: Karpas-299, 2000 ng/mL solution added, 4 days, relative to cells surviving brentuximab treatment
Description: Karpas-299 cells were prepared to be 2×10^6 cells/mL in culture medium A, and were added to a 96 well microplate for cell culturing in an amount of 50 μL for each well. Brentuximab or Example ADCs, the concentration of which was prepared to be 2000 ng/mL with culture medium A, was added to the microplate in an amount of 50 μL for each well, and cultured at 37 degree under 5% CO2 for 4 days. After culturing, the microplate was taken out from the incubator, and was left at rest at room temperature for 10 minutes. To each well, 50 μL of CellTiter-Glo Luminescent Cell Viability Assay (Promega) was added, and the resultant mixture was stirred. This mixture was incubated at a dark place for 20 minutes, and luminescence was measured using a microplate luminometer, thereby determining the percentage of the number of cells that survived upon the treatment with Example ADCs relative to the number of cells that survived upon the treatment with brentuximab.

Compound	Papp at 4 h [1]	IC50 (Karpas-299 cells [2])	also measured
CN[C@H](C(=O)N[C@H](C(=O)N(C)[C@H](/C=C(\C)C(=O)NCCCCNC(=O)CCCCCN1C(=O)C=CC1=O)C(C)C)C(C)(C)C)C(C)(C)c1cn(C)c2ccccc12 [Comparative Example compound, reference compound]	16.9 ×10⁻⁶ cm/s	19.1 nM	cellular toxicity to SK-BR-3 cells (in words) (SK-BR-3 cells): strong cellular toxicity; IC50 (SK-BR-3 cells): 162 nM; cellular toxicity to Karpas-299 cells (in words) (Karpas-299 cells [2]): strong cellular toxicity
CN[C@H](C(=O)N[C@H](C(=O)N(C)[C@H](/C=C(\C)C(=O)N[C@H](CCC(=O)NCCN1C(=O)C=CC1=O)C(=O)O)C(C)C)C(C)(C)C)C(C)(C)c1cn(C)c2ccccc12 [Example M1, (3S,6S,9S,10E,14R)-6-tert-Butyl-14-(3-{[2-(2,5-dioxo-2,5-dihydro-1H-pyrrol-1-yl)ethyl]amino}-3-oxopropyl)-8,11-dimethyl-3-[2-(1-methyl-1H-indol-3-yl)propan-2-yl]-4,7,12-trioxo-9-(propan-2-yl)-2,5,8,13-tetraazapentadec-10-en-15-oic Acid]	< 0.1 ×10⁻⁶ cm/s	726 nM	IC50 (SK-BR-3 cells): > 1000 nM
CNC(C(=O)N[C@H](C(=O)N(C)[C@H](/C=C(\C)C(=O)N[C@H](CCC(=O)NCCN1C(=O)C=CC1=O)C(=O)O)C(C)C)C(C)(C)C)C(C)(C)c1ccc(O)cc1 (stereo partly drawn) [Example M34]	2.7 ×10⁻⁶ cm/s	8 nM	
CN[C@H](C(=O)N[C@H](C(=O)N(C)[C@H](/C=C(\C)C(=O)N[C@H](CCC(=O)NCCN1C(=O)C=CC1=O)C(=O)O)C(C)C)C(C)(C)C)C(C)(C)c1cccc(C#N)c1 [Example M35]	0.8 ×10⁻⁶ cm/s	8.6 nM	
CN[C@H](C(=O)N[C@H](C(=O)N(C)[C@H](/C=C(\C)C(=O)N[C@H](CCC(=O)NCCN1C(=O)C=CC1=O)C(=O)O)C(C)C)C(C)(C)C)C(C)(C)c1ccc(C(=O)O)cc1 [Example M36]	0.6 ×10⁻⁶ cm/s	> 1000 nM	
CN[C@H](C(=O)N[C@H](C(=O)N(C)[C@H](/C=C(\C)C(=O)N[C@H](CCC(=O)NCCN1C(=O)C=CC1=O)C(=O)O)C(C)C)C(C)(C)C)C(C)(C)c1cccc(OC)c1 [Example M37]	< 0.1 ×10⁻⁶ cm/s	403 nM	
CN[C@H](C(=O)N[C@H](C(=O)N(C)[C@H](/C=C(\C)C(=O)N[C@H](CCC(=O)NCCN1C(=O)C=CC1=O)C(=O)O)C(C)C)C(C)(C)C)C(C)(C)c1cccs1 [Example M39]	< 0.1 ×10⁻⁶ cm/s	379 nM	
CN[C@H](C(=O)N[C@H](C(=O)N(C)[C@H](/C=C(\C)C(=O)N[C@H](CCC(=O)NCCN1C(=O)C=CC1=O)C(=O)O)C(C)C)C(C)(C)C)C(C)(C)c1ccc2ccccc2c1 [Example M40]	< 0.1 ×10⁻⁶ cm/s	176 nM	
CN[C@H](C(=O)N[C@H](C(=O)N(C)[C@H](/C=C(\C)C(=O)N[C@H](CCC(=O)NCCN1C(=O)C=CC1=O)C(=O)O)C(C)C)C(C)(C)C)C(C)(C)c1cccc(-c2ccccc2)c1 [Example M41]	0.8 ×10⁻⁶ cm/s	26.3 nM	
CN[C@H](C(=O)N[C@H](C(=O)N(C)[C@H](/C=C(\C)C(=O)N[C@H](CCC(=O)NCCN1C(=O)C=CC1=O)C(=O)O)C(C)C)C(C)(C)C)C(C)(C)c1cccc(C)c1 [Example M42]	4.9 ×10⁻⁶ cm/s	91.1 nM	
C/C(=C\[C@H](C(C)C)N(C)C(=O)[C@@H](NC(=O)[C@H]1CCCCN1C(C)C)C(C)(C)C)C(=O)N[C@H](CCC(=O)NCCN1C(=O)C=CC1=O)C(=O)O [Example M43]	2 ×10⁻⁶ cm/s	3.8 nM	
CN[C@H](C(=O)N[C@H](C(=O)N(C)[C@H](/C=C(\C)C(=O)N[C@H](CCC(=O)NCCN1C(=O)C=CC1=O)C(=O)O)C(C)C)C(C)(C)C)C(C)(C)c1cccc(Br)c1 [Example M44]	6.8 ×10⁻⁶ cm/s	9.2 nM	
CN[C@@H](C(=O)N[C@H](C(=O)N(C)[C@H](/C=C(\C)C(=O)N[C@H](CCC(=O)NCCN1C(=O)C=CC1=O)C(=O)O)C(C)C)C(C)(C)C)C(C)(C)c1cccc(Br)c1 [Example M45]	4 ×10⁻⁶ cm/s	189 nM	
CNC(C(=O)N[C@H](C(=O)N(C)[C@H](/C=C(\C)C(=O)N[C@H](CCC(=O)O)C(=O)O)C(C)C)C(C)(C)C)C(C)(C)c1ccc(C(=O)NCCN2C(=O)C=CC2=O)cc1 (stereo partly drawn) [Example M47, ((4S,E)-4-((2 S)-2-(3-(4-((2-(2,5-Dioxo-2,5-dihydro-1H-pyrrol-1-yl)ethyl)carbamoyl)phenyl)-3-methyl-2-(methylamino)butanamido)-N,3,3-trimethylbutanamido)-2,5-dimethylhex-2-enoyl)-D-glutamic Acid]	1.2 ×10⁻⁶ cm/s	> 1000 nM	
C/C(=C\[C@H](C(C)C)N(C)C(=O)[C@@H](NC(=O)[C@@H](NC(=O)CCCCCN1C(=O)C=CC1=O)C(C)(C)c1cn(C)c2ccccc12)C(C)(C)C)C(=O)N[C@H](CCC(=O)O)C(=O)O [Example M48]	0.3 ×10⁻⁶ cm/s	> 1000 nM	
Comparative Example 1: Brentuximab, a CD30 antigen-specific antibody, no modifying agent, average DAR 0			IC50 (Karpas-299 cells [3]): > 6.6 nM; Cell survival rate (%) (Karpas-299 cells [4]): 100%
